Test results taken from US20140066410A1, “INHIBITORS OF BROMODOMAINS AS MODULATORS OF GENE EXPRESSION” (ICAHN SCHOOL OF MEDICINE AT MOUNT SINAI, priority 2011, published 2014).
Read-outs that look alike come from different tables or passages of the source. One block for each compound: values may come before it.

Experiments:
p53 = assay: p21 luciferase assay (p53 inhibition) in U20S cells upon doxorubicin; format: cell-based; details: for % Inhibition (p53 inhibition, p21 luciferase activity) / inhibition at 50 µM: compounds at 50 μM, doxorubicin-treated U20S cells; for Ability to inhibit p53-dependent p21 luciferase activity / p21 expression (SAR, words): compared with lead / ortho-methyl analogs
Experimental: U20S Cells were transfected with p21 luciferase (1 μg) and renilla luciferase (100 ng) vectors in 6 well plate format using Fugene 6 (Roche). Briefly, total of 1.1 micrograms of vector was incubated with […] of Fugene 6 reagent for 30 min. After 3-4 hours of transfection, cell were treated with compounds for overnight, and then exposed to 300 nanogram of doxorubicin for next 24 hours. In these experiments, DMSO, transfected cells with empty vector and cell without doxorubicin were used as controls. DMSO concentration is maintained at 0.01%. Transfected cells with doxorubicin treatment were used as positive control. The luciferase activity was estimated by following the manufacturer's instruction (Promega) in a luminometer. […] The inhibitory activity (IC50) of a small molecule on p21 luciferase activity was obtained from the average of three biological replicates using PRISM software.

BRD4-2 = BRD4-2 (Homo sapiens, UniProt O60885); assay: Bromodomain binding affinity (tryptophan fluorescence binding assay)
Experimental: (§1) Monitoring change of intrinsic tryptophan fluorescence of a protein induced by ligand binding can be used to determine ligand binding affinity (KD). This assay was used to assess ligand binding to the CBP BRD and ischemin binding to the BRDs from other transcription proteins as follows. The chemical ligands were prepared at 500-850 μM in the PBS buffer. Their serial dilutions by a factor of 1.5 in a 384-wells black plate were carried out using a Tecan EVO200 liquid handler down to a concentration of 0.5 nM. Protein was added to the compounds to a final concentration in each well of 5 μM. Tryptophan fluorescence of the protein was measured (with excitation set at 280 nm, emission at 350 nm) on a Tecan Safire2 reader. Inner filter correction was introduced to take into account the possible intrinsic fluorescence of the compound. […] KD was calculated based on the curve fitting.

BRD4-1 = BRD4-1 (Homo sapiens, UniProt O60885); assay: as above
Experimental: as §1

melanoma cells = assay: Melanoma cell proliferation in vitro; format: cell-based; details: FIG. 6, FIG. 7
CBP BRD = CBP BRD (Homo sapiens, UniProt Q92793); assay: Bromodomain binding affinity (tryptophan fluorescence binding assay)
Experimental: as §1

PCAF = target: T1, PCAF (Homo sapiens, UniProt Q92831); assay: as above
T1 sequence (Q92831 723-827 limits assumed): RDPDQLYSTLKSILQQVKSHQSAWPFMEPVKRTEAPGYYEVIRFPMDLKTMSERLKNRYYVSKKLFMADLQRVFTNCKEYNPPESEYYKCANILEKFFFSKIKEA
Experimental: as §1

U20S cells = assay: BRDU incorporation / cell cycle analysis; format: cell-based; details: for Prevention of doxorubicin-induced cell cycle arrest (decrease of BRDU incorporation): compound 50 μM, doxorubicin 5 μM, U20S cells
Experimental: BRDU incorporation assay for cell cycle evaluation was performed in 96 well plates using calorimetric based kit from Calbiochem (Cat# QiA58). Hundred microliter of 1×10^5/ml cells were plated in DMEM media (Mediatech) with 10% fetal bovine serum (FBS). After 12 hours cells were treated with compounds ischemin and MS 119 (50 μM) with or without doxorubicin treatment (5 μM). The controls were DMSO and untreated cells. BRDU was added for 24 hours treatment. After 24 hours cells were fixed and treated with anti-BRDU antibody. After washings, the wells were incubated with peroxidase. After final wash, the color was developed using TMB as substrate and the reaction was stopped with stop solution and optical density was estimated at 450 nm.
DNA damage induced by doxorubicin leads to p53 stimulated cellular responses including cell cycle arrest, damage repair, and apoptosis. To determine the effect of ischemin on dividing U20S cells, U20S cells were treated with 5-bromo-2-deoxyuridine (BRDU) and the incorporated BRDU during in DNA synthesis was measured using an ELISA assay.

NF-κB = assay: TNFα-induced NF-kB activation, luciferase in NF-kB response element HEK293 cells; format: cell-based; details: Homo sapiens; NF-κB-response element stabilized HEK293 cells; read-out: IC50, inhibition of TNFα-induced activation of NF-κB
Experimental: FIG. 5. […] A. NF-kB activation by TNFa (10 ng/mL). HEK 293 cells ([…]) in a 24-well plate were stabilized with NF-kB response element (NF-kB_RE) was treated with TNF. Twenty-four hours after the treatment, the cells were harvested and lysed, and luciferase activity was determined.
Dysregulation of macrophages and T cell functions trigger inflammatory responses contributing to IBD progression. Given its pro-inflammatory functions, NF-κB inhibition has anti-inflammatory effects, as shown by inhibition of IKK activity, which prevents phoshorylation and release of IκBα from NF-κB.

melanocytes = assay: Proliferation of normal melanocytes; format: cell-based; details: in vitro; FIG. 6
[1] = Table 1, read-out: Binding Affinity, Kd BRD4-2
[2] = Table 1, read-out: Binding Affinity, Kd BRD4-1
[3] = Table 4, read-out: CBP (μM), bromodomain binding
[4] = Table 4, read-out: BrD4-2 (μM), bromodomain binding
[5] = Table 4, read-out: PCAF (μM), bromodomain binding
[6] = Table 4, read-out: BrD4-1 (μM), bromodomain binding

Sequence of CBP BRD (Q92793 1085-1192 limits assumed): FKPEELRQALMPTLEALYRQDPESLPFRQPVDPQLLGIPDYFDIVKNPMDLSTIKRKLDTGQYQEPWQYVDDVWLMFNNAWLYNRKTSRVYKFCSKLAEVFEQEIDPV

Compound: 5-(4-hydroxy-3,5-isopropyl-phenylazo)-2,4-dimethylbenzenesulfonic acid [MS128]
% Inhibition (p53 inhibition, p21 luciferase activity) (p53): 47.2%

Compound: 5-(4-hydroxy-3-methyl-5-propene-phenylazo)-2,4-methylbenzenesulfonic acid [MS130]
% Inhibition (p53 inhibition, p21 luciferase activity) (p53): 40.4%

Kd (BRD4-2; [1]): 1.6 µM
Kd (BRD4-1; [2]): < 1 µM
Compound: Cc1cc(C#Cc2ccc(S(=O)(=O)Nc3ccccn3)cc2)cc(C)c1O [CM0000254]

Kd (CBP BRD; Table 1, read-out: Binding Affinity, Kd CBP): 32.8 µM
Kd (CBP BRD; [3]): 33 µM
Kd (BRD4-2; [1]): < 1 µM
Kd (BRD4-2; [4]): < 1 µM
Kd (PCAF; Table 1, read-out: Binding Affinity, Kd PCAF): < 1 µM
Kd (PCAF; [5]): < 1 µM
Kd (BRD4-1; [2]): < 1 µM
Kd (BRD4-1; [6]): < 1 µM
Compound: Cc1cc(/C=C/c2ccc(S(=O)(=O)Nc3ccccn3)cc2)cc(C)c1O [CM0000255]
Inhibition of melanoma cell proliferation (melanoma cells): capable of inhibiting melanoma cell proliferation

Kd (BRD4-2; [1]): < 1 µM
Kd (BRD4-1; [2]): 1.5 µM
Compound: Cc1cc(/C=C/c2ccc(S(=O)(=O)Nc3ccccn3)cc2)c(NC(=O)OC(C)(C)C)cc1O [CM0000278]

Kd (BRD4-2; [1]): < 1 µM
Kd (BRD4-2; [4]): < 1 µM
Kd (BRD4-1; [2]): 2.1 µM
Kd (BRD4-1; [6]): 2 µM
Compound: Cc1cc(/C=C/c2ccc(S(=O)(=O)Nc3ccccn3)cc2)c(N)cc1O [CM0000279]
Inhibition of melanoma cell proliferation (melanoma cells): capable of inhibiting melanoma cell proliferation

Compound: Cc1cc(O)cc(C)c1/N=N/c1ccc(S(=O)(=O)O)cc1 [MS100, 4-(4-hydroxy-2,6-dimethyl-phenylazo)-benzenesulfonic acid]
inhibition at 50 µM (p53): 36.4%

Compound: Cc1cc(/N=N/c2ccc(S(=O)(=O)O)cc2)c(C)cc1O [MS101, 4-(4-hydroxy-2,5-dimethyl-phenylazo)-benzenesulfonic acid]
Ability to inhibit p53-dependent p21 luciferase activity / p21 expression (SAR, words) (p53): marked increase
inhibition at 50 µM (p53): 82.9%

Compound: Cc1cc(/N=N/c2ccc(S(=O)(=O)O)cc2)c(C)c(C)c1O [MS103, 4-(4-hydroxy-2,3,5-trimethyl-phenylazo)-benzenesulfonic acid]
inhibition at 50 µM (p53): 38.9%

Compound: CC(C)c1cc(N=Nc2ccc(S(=O)(=O)O)cc2)cc(C(C)C)c1O [MS105, 4-(4-hydroxy-3,5-diisopropyl-phenylazo)-benzenesulfonic acid]
Ability to inhibit p53-dependent p21 luciferase activity / p21 expression (SAR, words) (p53): reduced activity
inhibition at 50 µM (p53): 26.4%

Compound: Cc1cc(C)c(S(=O)(=O)O)cc1/N=N/c1cc(C)c(O)c(C)c1 [MS109, 5-(3,5-dimethyl-4-hydroxyphenylazo)-2,4-dimethylbenzenesulfonic acid]
inhibition at 50 µM (p53): 60.1%

Compound: Cc1cc(N=Nc2ccc(S(=O)(=O)O)cc2)cc(C(C)(C)C)c1O [MS111, 4-(4-hydroxy-3-t-butyl-5-methyl-phenylazo)-benzenesulfonic acid]
Ability to inhibit p53-dependent p21 luciferase activity / p21 expression (SAR, words) (p53): reduced activity
inhibition at 50 µM (p53): 22.8%

Compound: CCc1cc(/N=N/c2ccc(S(=O)(=O)O)cc2)ccc1O [MS113, 4-(4-hydroxy-3-ethyl-phenylazo)-benzenesulfonic acid]
Ability to inhibit p53-dependent p21 luciferase activity / p21 expression (SAR, words) (p53): reduced activity
inhibition at 50 µM (p53): 25.7%

Compound: Cc1cc(/N=N/c2cc(S(=O)(=O)O)c(C)cc2C)c(C)cc1O [MS118]
inhibition at 50 µM (p53): 49.7%

Compound: Cc1cc(C)c(S(=O)(=O)O)cc1/N=N/c1c(C)cc(O)cc1C [MS119, 5-(2,6-dimethyl-4-hydroxyphenylazo)-2,4-dimethylbenzenesulfonic acid]
Inhibition of p21 luciferase activity (p53; U20S cells, FIG. 1A): Dose-dependent inhibition
inhibition at 50 µM (p53): 54%
Prevention of doxorubicin-induced cell cycle arrest (decrease of BRDU incorporation) (U20S cells): prevents a doxorubicin-induced decrease of BRDU incorporation
Prevention of doxorubicin-induced cell cycle arrest (decrease of BRDU incorporation) (U20S cells; listed as MS 119): almost completely prevented

Compound: CCc1cc(/N=N/c2cc(S(=O)(=O)O)c(C)cc2C)ccc1O [MS124, 5-(3-ethyl-4-hydroxyphenylazo)-2,4-dimethylbenzenesulfonic acid]
inhibition at 50 µM (p53): 25%

Compound: CCCc1cc(N=Nc2cc(S(=O)(=O)O)c(C)cc2C)ccc1O [MS126, 5-(4-hydroxy-3-propyl-phenylazo)-2,4-dimethylbenzenesulfonic acid]
inhibition at 50 µM (p53): 93.5%

Compound: CCC(=O)c1cc(N=Nc2cc(S(=O)(=O)O)c(C)cc2C)ccc1O [MS127, 5-(4-hydroxyphenylazo-3-(1-propanone))-2,4-dimethylbenzenesulfonic acid]
% Inhibition (p53 inhibition, p21 luciferase activity) (p53): 86.8%

Compound: Cc1cc(C)c(S(=O)(=O)O)cc1N=Nc1cc(C)c(O)c(C(C)C)c1 [MS129, 5-(4-hydroxy-3-isopropyl-5-methyl-phenylazo)-2,4-dimethylbenzenesulfonic acid]
inhibition at 50 µM (p53): 44.6%

Compound: Cc1cc(C)c(S(=O)(=O)O)cc1/N=N/c1ccc(O)c(Cl)c1 [MS131, 5-(3-chloro-4-hydroxyphenylazo)-2,4-dimethylbenzenesulfonic acid]
inhibition at 50 µM (p53): 49.7%

Compound: Cc1cc(O)c(N)cc1/N=N/c1cc(S(=O)(=O)O)c(C)cc1C [MS135]
inhibition at 50 µM (p53): 54.8%

Compound: Cc1cc(C)c(S(=O)(=O)O)cc1/N=N/c1cc(C)c(O)c(C)c1C [MS146, 5-(2,3,5-trimethyl-4-hydroxyphenylazo)-2,4-dimethylbenzenesulfonic acid]
inhibition at 50 µM (p53): 30.8%

Compound: Cc1cc(O)cc(C)c1/N=N/c1cc(Cl)c(O)c(S(=O)(=O)O)c1 [MS153]
inhibition at 50 µM (p53): 39%

Compound: Cc1cc(/N=N/c2ccc(S(=O)(=O)O)cc2)ccc1O [MS450]
Ability to inhibit p53-dependent p21 luciferase activity / p21 expression (SAR, words) (p53): marked increase
inhibition at 50 µM (p53): 85.6%

Compound: Cc1cc(/N=N/c2ccc(S(=O)(=O)O)cc2)cc(C)c1O [MS451]
Ability to inhibit p53-dependent p21 luciferase activity / p21 expression (SAR, words) (p53): marked increase
inhibition at 50 µM (p53): 87.4%

IC50 (NF-κB): 0.057 µM
Kd (CBP BRD; Table 5, read-out: CBP): > 100 µM
Kd (BRD4-2; Table 5, read-out: BrD4-2): 21 µM
Kd (PCAF; Table 5, read-out: PCAF): > 100 µM
Kd (BRD4-1; Table 5, read-out: BrD4-1): 4.5 µM
Compound: Cc1cc(NNc2ccc(S(=O)(=O)NCc3ccc(C(F)(F)F)cc3)cc2)c(N)cc1O [MS0129433]

Kd (CBP BRD; [3]): > 100 µM
Kd (BRD4-2; [4]): 2.4 µM
Kd (PCAF; [5]): 4.5 µM
Kd (BRD4-1; [6]): 1.3 µM
Compound: Cc1cc(/N=N/c2ccc(S(=O)(=O)Nc3ccccn3)cc2)cc(C)c1O [MS0129435]

IC50 (NF-κB): 0.057 µM
Kd (CBP BRD; [3]): 14 µM
Kd (CBP BRD; Table 5, read-out: CBP): 14 µM
Kd (PCAF; [5]): 6.8 µM
Kd (PCAF; Table 5, read-out: PCAF): 8.6 µM
Compound: Cc1cc(/N=N/c2ccc(S(=O)(=O)Nc3ccccn3)cc2)c(N)cc1O [MS0129436]
Effect on normal melanocytes (melanocytes): no effect
Inhibition of melanoma cell proliferation (melanoma cells): inhibits proliferation

IC50 (NF-κB): 0.22 µM
Kd (CBP BRD; [3]): 82 µM
Kd (CBP BRD; Table 5, read-out: CBP): 82 µM
Kd (BRD4-2; [4]): 54 µM
Kd (PCAF; [5]): 88 µM
Kd (PCAF; Table 5, read-out: PCAF): 88 µM
Kd (BRD4-1; [6]): 54 µM
Kd (BRD4-1; Table 5, read-out: BrD4-1): 54 µM
Compound: O=C(O)c1cc(/N=N/c2ccc(S(=O)(=O)Nc3ccccn3)cc2)ccc1O [Sulfasalazine (MS0123028), Sulfasalazine, reference compound]

Compound: COc1cccc2c1C(=O)c1c(O)c3c(c(O)c1C2=O)C[C@@](O)(C(=O)CO)C[C@@H]3O[C@H]1C[C@H](N)[C@H](O)[C@H](C)O1 [doxorubicin, reference compound]
Decrease of BRDU incorporation (U20S cells; doxorubicin treatment of U20S cells): 45%
